Legend:
[1] = test system: oestrogen receptor positive advanced breast cancer; test: CONFIRM phase III study, fulvestrant 500 mg vs 250 mg: efficacy; settings: for Number progressed / Number progressed (%): progressed or died at data cut-off; for Median DoR: from randomisation, patients with OR;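 as to all read-outs here: efficacy outcomes summarised by randomised treatment arm using the full analysis set of patients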
Description: The primary outcome variable TTP; secondary variables were ORR, CBR, DoR, DoCB and OS.
For the primary endpoint TTP, the primary analysis was an unadjusted log-rank test and the secondary analysis was a Cox proportional hazard model, adjusted for treatment and other predefined covariates.
For OS, the unadjusted log-rank test was performed. For ORR and CBR, a logistic regression model with treatment factor only was fitted. […] For HRQoL endpoints, a longitudinal model with treatment and other covariates was used.
For efficacy and HRQoL endpoints, summaries and analyses were carried out according to the randomised treatment i.e., using the Full Analysis Set. For safety endpoints, summaries and analyses were carried out according to the treatment actually received, i.e., using the safety analysis set. The primary endpoint was also analysed in the per protocol set (PPS).
Time to progression is the time between randomisation and the earliest of progression or death from any cause.

advanced breast cancer = settings: 250 mg, cited from earlier work
[2] = CONFIRM phase III study: safety and tolerability (adverse events); assay type: in vivo, postmenopausal women
Description: Outcome variables for safety were frequency and severity of adverse events (AEs), including pre-specified AEs of interest.
Patients could be discontinued from study treatment and assessments at any time at the discretion of the investigators. Patients were also free to discontinue their participation in the study at any time, without prejudice to further treatment. Specific reasons for discontinuing a patient from this study, and the procedures to be followed when a patient discontinued or was incorrectly enrolled, are listed in Section 3.3.5 of the CSP. For patients who discontinued, it was noted whether they were assessed after study medication was stopped, and whether they were asked about the reason(s) for their discontinuation and about the presence of any adverse events (AEs). If possible, they were seen and assessed by an investigator. AEs were followed up for 56 days after the last injection.

## C[C@]12CC[C@@H]3c4ccc(O)cc4C[C@@H](CCCCCCCCC[S+]([O-])CCCC(F)(F)C(F)(F)F)[C@H]3[C@@H]1CC[C@@H]2O (stereo partly drawn) [fulvestrant, 7alpha-[9-(4,4,5,5,5-pentafluoropentylsulfinyl)-nonyl]estra-1,3,5, (10)-triene-3, 17beta-diol]
[1]; 250 mg
  Time to progression (months): 25% quartile: 2.7 months
  Time to progression (months): 75% quartile: 11.9 months
  expected DoCB (EDoCB): 7.24 months
  proportion of patients with a best objective response of progressive disease: 44.7%
  Percentage of patients progression free at 6 months: 45%
  % patients progression free at 12 months: 25%
  Percentage of patients progression free at 18 months: 14%
  % patients alive at 24 months: fulvestrant 250 mg = 49%
  Percentage of patients progression free at 24 months: 11%
  Median DoR: 250 mg = 16.4 months
[1]; 250 mg im every 28 days, N = 374
  Median TTP: 5.5 months
[1]; 250 mg, listed as Fulvestrant
  % patients progression free at 12 months: 25%
[1]; 250 mg, N = 374
  Number progressed: 321
  Number progressed (%): 85.8%
[1]; 500 mg
  Time to progression (months): 25% quartile: 2.8 months
  Time to progression (months): 75% quartile: 16.6 months
  expected DoCB (EDoCB): 9.83 months
  proportion of patients with a best objective response of progressive disease: 38.7%
  Percentage of patients progression free at 6 months: 51%
  % patients progression free at 12 months: 34%
  Percentage of patients progression free at 18 months: 23%
  % patients alive at 24 months: % patients alive at 24 months: fulvestrant 500 mg = 53%;
  Percentage of patients progression free at 24 months: 16%
  Median DoR: Median DoR^c: fulvestrant 500 mg = 19.4 months; fulvestrant
[1]; 500 mg compared with 250 mg
  reduction in risk of death: 16%
  reduction in risk of progression: 20%
[1]; 500 mg im days 0, 14, 28 then every 28 days, N = 362
  Median TTP: 6.5 months
[1]; 500 mg vs 250 mg, from randomisation to progression
  Ratio of EDoR (95% CI): Ratio of EDoR = 0.894 (95% CI 0.479-1.667); p = 0.724
[1]; 500 mg, listed as Fulvestrant
  % patients progression free at 12 months: 34%
[1]; 500 mg, N = 362
  Number progressed: 297
  Number progressed (%): 82.0%
Advanced breast cancer; Studies 20/21
  efficacy compared with anastrozole: non-inferior to anastrozole
Advanced breast cancer; combined analysis of Studies 20/21
  Median TTP: 5.5 months
[2]; 250 mg
  gastrointestinal disturbances (pre-specified AE), patients: approximately 20%
  joint disorders (pre-specified AE), patients: ~19%
[2]; 500 mg
  gastrointestinal disturbances (pre-specified AE), patients: approximately 20%
  joint disorders (pre-specified AE), patients: ~19%
  tolerability: well tolerated
[2]; 500 mg vs 250 mg
  dose dependence of adverse events: no evidence for dose dependence for any AE

— patent US20120214778A1 (priority 2009, published 2012)
